Where two headings read alike, the source gives them in different places.

For this test, the system named is OCI-Ly10. The test can be described thus: growth inhibition of OCI-Ly10 (ABC subtype DLBCL cells). In kind it is cell-based. The following applies: Homo sapiens. The source says:
See U.S. Pat. No. 7,711,492 and Staudt et al., Nature, Vol. 463, Jan. 7, 2010, pp. 88-92, the contents of which are incorporated by reference in their entirety.

In general, EC50 refers to the concentration at which the effect is half-maximal. As for `C=CC(=O)N1CCC[C@@H](n2nc(-c3ccc(Oc4ccccc4)cc3)c3c(N)ncnc32)C1` [Compound 1, 1-((R)-3-(4-amino-3-(4-phenoxyphenyl)-1H-pyrazolo[3,4-d]pyrimidin-1-yl)piperidin-1-yl)prop-2-en-1-one], the EC50 by setting is: (continuous exposure, read-out: EC50 continuous exposure) 10 nM; (read-out: EC50 1 hour pulse, 1 hour pulse) 50 nM.

The record behind these values is patent publication US9545407B2, “Formulations of a bruton's tyrosine kinase inhibitor” (Pharmacyclics LLC, priority 2014, dated 2017).
